19 compounds from patent US20140057895A1, “INDAZOLE- AND PYRROLOPYRIDINE-DERIVATIVE AND PHARMACEUTICAL USE THEREOF” (priority 2011, published 2014) can be followed below.

Where a name gives a salt, the structure may show the parent alone.

The term IC50 denotes the point on the concentration scale where inhibition reaches its midpoint. Broadly, the EC50 is the concentration giving half of the maximal effect. A higher EC50 goes with a less potent agent.

Assay [1] concerns the target T1, 5-HT4 receptor (Cavia porcellus, UniProt O70528).
T1 construct: striatum was isolated which was cryopreserved at −80° C. until use; from tissue; host or cells: guinea pig (Slc-Hartley) striatum membranes
The experiment in a line: Test Example 1: Serotonin 4 (5-HT4) receptor binding assay, [3H]-GR113808, guinea pig striatum membranes (Table 96). Particulars: Guinea pig 5-HT4 receptor binding assay, [3H]-GR113808, striatum membranes; mean value of each group. The protocol:
The 5-HT4 receptor binding assay and preparations of receptor membrane preparations herein were carried out according to a method of Grossman et al. [see, British J. Pharmacol., (1993) 109, 618].
Slc-Hartley guinea pigs (body weight 300 g to 400 g) were decapitated to remove brain rapidly, and striatum was isolated which was cryopreserved at −80° C. until use. To the obtained tissues were added fifteen fold of Hepes buffer (50 mM, pH 7.4, 4° C.), and the mixture was homogenized by Teflon (trademark) homogenizer and centrifuged at 48,000×g (4° C.) for 15 minutes. To the resulting precipitate was added Hepes buffer (1 ml) to 30 mg by wet weight of tissues, and the mixture was suspended to give receptor membrane preparations.
To an assay tube were added 0.1 nM [^3H]-GR113808 {chemical name: [1-[2-(methylsulfonylamino)ethyl]-4-piperidinyl]methyl 1-methylindole-3-carboxylate}, receptor membrane preparations, and Hepes buffer (50 mM, pH 7.4, 4° C., 1 ml) containing test compounds or 30 μM serotonin; and the mixture was incubated at 37° C. for 30 minutes. On quenching the reaction, the mixture was rapidly filtered on whatman GF/B filter, which was presoaked in 0.1% polyethyleneimine for 1 hour, by using Brandel cell Harvester, and washed with ice-cooled 50 mM Tris-HCl (pH 7.7, 4 ml) three times. To the filter after filtration was added a liquid scintillator (Ecoscint), and then a radioactivity was determined by a liquid scintillation counter.
50% Inhibition concentrations (IC50) were determined from inhibition rates of test compounds to specific bindings which were obtained by subtracting nonspecific bindings from total binding amounts of [^3H]-GR113808.
(§1) In the following table, the compounds used in the test are shown in numbers which correspond to the Example numbers above where the preparations of the compounds are described.

For assay [2], the target named is T2, human 5-HT4b receptor (Homo sapiens, UniProt Q13639).
T2 construct: expressed in transfected cells; host or cells: CHO cells (G418 selection)
T2 sequence (Q13639 whole entry): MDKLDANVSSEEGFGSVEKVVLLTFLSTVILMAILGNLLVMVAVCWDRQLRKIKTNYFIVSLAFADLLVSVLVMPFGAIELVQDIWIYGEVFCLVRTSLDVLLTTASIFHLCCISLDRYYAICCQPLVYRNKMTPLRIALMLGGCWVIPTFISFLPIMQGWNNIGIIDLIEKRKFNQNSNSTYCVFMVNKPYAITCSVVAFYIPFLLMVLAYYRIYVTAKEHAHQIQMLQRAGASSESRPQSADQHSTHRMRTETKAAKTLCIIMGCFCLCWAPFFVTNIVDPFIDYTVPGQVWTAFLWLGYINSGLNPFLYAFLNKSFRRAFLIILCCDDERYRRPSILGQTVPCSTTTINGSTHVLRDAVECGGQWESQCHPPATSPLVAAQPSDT
The experiment in a line: Test Example 2: Serotonin 4 (5-HT4) receptor agonist activity assay, cAMP HTRF in CHO cells (Table 97). It counts as cell-based. Particulars: cAMP in CHO cells expressing human 5-HT4b receptor, mean value; for Emax: 0.25 h, intrinsic activity, maximal activity of 5-HT defined as 100%, read-out: IA (%); for EC50: concentration showing 50% of IA. The procedure:
The cAMP measurement test used herein was carried out by using CISBIO HTRF (trademark) cAMP Hirange kit according to the manufacturer's instructions attached therewith.
CHO cells expressing human 5-HT4b receptor were incubated in Medium 1 [DMEM/1% NEAA, 1% penicillin/streptomycin (P/S), 0.2 mg/mL GENETICIN (G418), 10% FBS] at 37° C. under 5% CO2 condition. Then, the cells were put into Medium 2 (DMEM/10000 cut FBS, G-418, P/S, NEAA) for 1 to 2 hours, and collected by treating with trypsin containing EDTA. The collected cells were suspended in Assay Buffer 1 [100 mM Hanks/HEPES buffer (pH 7.4)], the suspended cells were mixed with the testing compound on 384-well plates, and the cells were incubated at 31° C. for 15 minutes. To the cells were added cAMP-cryptate solution and cAMP-d2 solution, and they were incubated at room temperature for 1 hour. Then, time-resolved fluorescence was measured by En Vision (excitation wavelength: 330 nm, fluorescence wavelength: 620/665 nm). An intrinsic activity of the compound [IA (%)] and a concentration showing 50% of IA [EC50 (nM)] were calculated from the obtained results. In particular, the intrinsic activity (IA) was calculated on the basis of the maximal activity of 5-HT (measured from 10^−11 M to 10^−7 M) defined as 100%.
as §1

Assay [3] deals with T2, human 5-HT4b receptor. The experiment in a line: Test Example 4: Serotonin 4 (5-HT4) receptor agonist activity assay, cAMP HTRF in CHO cells (Table 100). It counts as cell-based. Particulars: mean value. The method in brief:
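CHO cells expressing human 5-HT4b receptor, serum-reduced for 1–2 h, were suspended in Hanks/HEPES pH 7.4 and exposed to compound for 15 min at 31° C. cAMP detected by HTRF (cryptate/d2, 1 h RT, 620/665 nm). EC50 and intrinsic activity relative to maximal 5-HT response (10^−11 to 10^−7 M) set at 100%.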
A general note: Time-resolved FRET reads energy transfer from a long-lived donor to a nearby acceptor.

Assay [4] deals with T1, 5-HT4 receptor. The experiment in a line: Test Example 3: Guinea pig 5-HT4 receptor binding assay, [3H]-GR113808, striatum membranes (Table 98). As to conditions: Guinea pig 5-HT4 receptor binding assay, [3H]-GR113808, striatum membranes; mean value of each group; read-out: IC50. In a few lines:
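Striatal membranes from Slc-Hartley guinea pigs were incubated with 0.1 nM [3H]-GR113808 and test compounds in 50 mM Hepes pH 7.4 at 37° C for 30 min; nonspecific binding was defined with 30 μM serotonin. Bound radioactivity was collected by filtration, and IC50 was derived from inhibition of specific binding.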

T1 sequence (O70528 whole entry): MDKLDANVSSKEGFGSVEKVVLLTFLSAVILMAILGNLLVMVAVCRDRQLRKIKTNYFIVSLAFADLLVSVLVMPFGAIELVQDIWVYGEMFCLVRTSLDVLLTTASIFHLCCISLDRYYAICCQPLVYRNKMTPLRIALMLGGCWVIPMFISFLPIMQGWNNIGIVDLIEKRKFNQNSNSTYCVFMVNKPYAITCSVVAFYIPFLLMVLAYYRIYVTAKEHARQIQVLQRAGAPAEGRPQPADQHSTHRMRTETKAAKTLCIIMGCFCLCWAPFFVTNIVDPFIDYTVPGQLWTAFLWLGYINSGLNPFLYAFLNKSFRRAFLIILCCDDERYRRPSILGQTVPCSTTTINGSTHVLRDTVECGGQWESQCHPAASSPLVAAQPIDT

Regarding `CCc1nn(-c2noc(C3CCN(C[C@@H]4CCCN4C(=O)OCCF)CC3)n2)c2c(F)cccc12` [Example 182, 2-fluoroethyl (2S)-2-({4-[3-(3-ethyl-7-fluoro-1H-indazol-1-yl)-1,2,4-oxadiazol-5-yl]piperidin-1-yl}methyl)pyrrolidine-1-carboxylate], the concentration for half-maximal inhibition (IC50) at 5-HT4 receptor [1] is < 20 nM. In addition, on human 5-HT4b receptor [2], the Emax stood at 38% and a half-maximal response (EC50) required 4 nM.
In the case of `CCN[C@H]1C[C@@H](c2nc(-n3nc(CC)c4ccc(F)cc43)no2)C1` [Example 278, cis-N-ethyl-3-[3-(3-ethyl-6-fluoro-1H-indazol-1-yl)-1,2,4-oxadiazol-5-yl]cyclobutanamine], at 5-HT4 receptor [1], the IC50 is < 20 nM.
For `CCc1nn(-c2noc(C3CCN(CCC4CCCO4)CC3)n2)c2cc(F)ccc12` (centres unmarked) [Example 131, 3-ethyl-6-fluoro-1-(5-{1-[2-(tetrahydrofuran-2-yl)ethyl]piperidin-4-yl}-1,2,4-oxadiazol-3-yl)-1H-indazole], the 50% inhibitory concentration (IC50) at 5-HT4 receptor [1] was < 20 nM. For the same compound, on human 5-HT4b receptor [2], the Emax is 77% and it took 9.3 nM to reach a half-maximal effect (EC50).
On the same counts, the results for `CCc1nn(-c2noc(C3CCN(CCCOC)CC3)n2)c2c(F)cccc12` [Example 95, 3-ethyl-7-fluoro-1-{5-[1-(3-methoxypropyl)piperidin-4-yl]-1,2,4-oxadiazol-3-yl}-1H-indazole] are < 20 nM, 43% and 3.7 nM.
With `CCc1nn(-c2noc(C3CCN(C4CCOC4)CC3)n2)c2cc(F)ccc12` (centres unmarked) [Example 138, 3-ethyl-6-fluoro-1-{5-[1-(tetrahydrofuran-3-yl)piperidin-4-yl]-1,2,4-oxadiazol-3-yl}-1H-indazole], on 5-HT4 receptor [1], the IC50 is < 20 nM. On human 5-HT4b receptor [2], the Emax was 67% and the 50% effective concentration (EC50) was 22.4 nM.
For `CCc1nn(-c2noc(C3CCN(CC4CCCO4)CC3)n2)c2ccccc12` (centres unmarked) [Example 132, 3-ethyl-1-{5-[1-(tetrahydrofuran-2-ylmethyl)piperidin-4-yl]-1,2,4-oxadiazol-3-yl}-1H-indazole], the IC50 at 5-HT4 receptor [1] was < 20 nM. Further, on human 5-HT4b receptor [2], the Emax turned out to be 29% and a half-maximal response (EC50) required 14.7 nM.
Regarding `CCc1nn(-c2noc(C3CCN(CC4CN(C(=O)COC)C4)CC3)n2)c2c(F)cccc12` [Example 224, 1-[3-({4-[3-(3-ethyl-7-fluoro-1H-indazol-1-yl)-1,2,4-oxadiazol-5-yl]piperidin-1-yl}methyl)azetidin-1-yl]-2-methoxyethanone hydrochloride], the IC50 on 5-HT4 receptor [1] and on 5-HT4 receptor [4] was < 20 nM in each case. For the same compound, at human 5-HT4b receptor [3] (CHO, 0.25 h, intrinsic activity, maximal activity of 5-HT defined as 100%, read-out: IA (%)), the Emax came out at 73.9%. Besides, on human 5-HT4b receptor [3] (concentration showing 50% of IA), a half-maximal response (EC50) required 6.7 nM.
`CCC(C)N1CCC(c2nc(-n3nc(C4CCC4)c4ccccc43)no2)CC1` (centres unmarked) [Example 114, 1-{5-[1-(butan-2-yl)piperidin-4-yl]-1,2,4-oxadiazol-3-yl}-3-cyclobutyl-1H-indazole trifluoroacetate] had an IC50 on 5-HT4 receptor [1] of 26.2 nM. Besides, at human 5-HT4b receptor [2], the Emax worked out at 68% and the EC50 is 53 nM.
The compound `CCc1nn(-c2noc(C3CCN(CC4CC4)CC3)n2)c2ccccc12` [Example 112, 1-{5-[1-(cyclopropylmethyl)piperidin-4-yl]-1,2,4-oxadiazol-3-yl}-3-ethyl-1H-indazole trifluoroacetate] yielded a 50% inhibitory concentration (IC50) on 5-HT4 receptor [1] of 26.4 nM. Moreover, at human 5-HT4b receptor [2], the Emax worked out at 73% and the EC50 turned out to be 24.9 nM.
On the same counts, the results for `COCCCN1CCC(c2nc(-n3nc(C4CC4)c4ccccc43)no2)CC1` [Example 88, 3-cyclopropyl-1-{5-[1-(3-methoxypropyl)piperidin-4-yl]-1,2,4-oxadiazol-3-yl}-1H-indazole trifluoroacetate] are 33.5 nM, 37% and 16.4 nM.
On the same counts, the results for `CCc1nn(-c2noc(C3CCN(CC(C)C)CC3)n2)c2ccccc12` [Example 103, 3-ethyl-1-(5-[1-(2-methylpropyl)piperidin-4-yl]-1,2,4-oxadiazol-3-yl}-1H-indazole] are < 20 nM, 59% and 11 nM.
Take `CCc1nn(-c2noc(C3CCN(C[C@@H]4CCN(C(=O)OCCF)C4)CC3)n2)c2ccccc12` [Example 195, 2-fluoroethyl (3S)-3-({4-[3-(3-ethyl-1H-indazol-1-yl)-1,2,4-oxadiazol-5-yl]piperidin-1-yl}methyl)pyrrolidine-1-carboxylate]: the IC50 on 5-HT4 receptor [1] was < 20 nM. Also, at human 5-HT4b receptor [2], the Emax was 49% and the response was half-maximal at 31.4 nM (EC50).
On the same counts, the results for `CCc1nn(-c2noc(C3CCN(CC4CCOCC4)CC3)n2)c2cc(F)ccc12` [Example 134, 3-ethyl-6-fluoro-1-{5-[1-(tetrahydro-2H-pyran-4-ylmethyl)piperidin-4-yl]-1,2,4-oxadiazol-3-yl}-1H-indazole] are 24.2 nM, 81% and 12.1 nM.
In the case of `CCc1nn(-c2noc(C3CCN(C(C)CC)CC3)n2)c2ccccc12` (centres unmarked) [Example 101, 1-{5-[1-(butan-2-yl)piperidin-4-yl]-1,2,4-oxadiazol-3-yl}-3-ethyl-1H-indazole trifluoroacetate], the IC50 at 5-HT4 receptor [1] is < 20 nM. Also, at human 5-HT4b receptor [2], the Emax stood at 70% and it took 8.9 nM to reach a half-maximal effect (EC50).
The matching figures for `CCc1nn(-c2noc(C3CCN(C(C)C)CC3)n2)c2cc(F)ccc12` [Example 143, 3-ethyl-6-fluoro-1-{5-[1-(propan-2-yl)piperidin-4-yl]-1,2,4-oxadiazol-3-yl}-1H-indazole]: < 20 nM, 81% and 6 nM.
Turning to `CCc1nn(-c2noc(C3CN(C4CCN(C(=O)OC)CC4)C3)n2)c2ccccc12` [Example 257, methyl 4-{3-[3-(3-ethyl-1H-indazol-1-yl)-1,2,4-oxadiazol-5-yl]azetidin-1-yl}piperidine-1-carboxylate], the half-inhibitory concentration (IC50) on 5-HT4 receptor [1] is < 20 nM. At human 5-HT4b receptor [2], the Emax stood at 48% and it took 60.7 nM to reach a half-maximal effect (EC50).
The matching figures for `CCc1nn(-c2noc(C3CCN(CCCOC)CC3)n2)c2cc(F)ccc12` [Example 92, 3-ethyl-6-fluoro-1-{5-[1-(3-methoxypropyl)piperidin-4-yl]-1,2,4-oxadiazol-3-yl}-1H-indazole]: < 20 nM, 92% and 6.5 nM.
Turning to `CCCN1CCC(c2nc(-n3nc(C(C)C)c4ccccc43)no2)CC1` [Example 117, 3-(propan-2-yl)-1-[5-(1-propylpiperidin-4-yl)-1,2,4-oxadiazol-3-yl]-1H-indazole trifluoroacetate], the IC50 at 5-HT4 receptor [1] was 25.9 nM. Also, on human 5-HT4b receptor [2], the Emax amounted to 83% and the half-maximal effective concentration (EC50) is 29.5 nM.
The matching figures for `CC(C)CN1CCC(c2nc(-n3nc(C4CCC4)c4ccccc43)no2)CC1` [Example 115, 3-cyclobutyl-1-{5-[1-{2-methylpropyl)piperidin-4-yl]-1,2,4-oxadiazol-3-yl}-1H-indazole trifluoroacetate]: 40.2 nM, 58% and 153 nM.
